{"source": "paper PMC7549094", "about": "(Journal of Medicinal Chemistry, 2020)", "key": {"[1]": {"molecular_target": "hr CB1 ag (Homo sapiens, UniProt P21554)", "sequence (P21554 whole entry)": "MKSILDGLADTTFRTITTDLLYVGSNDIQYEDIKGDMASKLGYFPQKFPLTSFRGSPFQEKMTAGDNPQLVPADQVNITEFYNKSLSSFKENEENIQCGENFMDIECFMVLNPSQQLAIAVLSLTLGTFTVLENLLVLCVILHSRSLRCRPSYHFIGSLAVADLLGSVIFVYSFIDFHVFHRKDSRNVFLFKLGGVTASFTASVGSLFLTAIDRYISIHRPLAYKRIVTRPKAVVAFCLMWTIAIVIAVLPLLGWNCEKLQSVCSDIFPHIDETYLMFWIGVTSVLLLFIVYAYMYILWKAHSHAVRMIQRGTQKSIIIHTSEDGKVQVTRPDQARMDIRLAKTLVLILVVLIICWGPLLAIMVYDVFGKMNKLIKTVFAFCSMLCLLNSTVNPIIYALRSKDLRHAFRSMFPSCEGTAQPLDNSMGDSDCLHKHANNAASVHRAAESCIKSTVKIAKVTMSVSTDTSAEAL", "assay": "receptor profile (Table S4)", "format": "biochemical"}, "[2]": {"molecular_target": "T1, hr Alpha2C (Homo sapiens, UniProt P18825)", "T1 sequence (P18825 1-462)": "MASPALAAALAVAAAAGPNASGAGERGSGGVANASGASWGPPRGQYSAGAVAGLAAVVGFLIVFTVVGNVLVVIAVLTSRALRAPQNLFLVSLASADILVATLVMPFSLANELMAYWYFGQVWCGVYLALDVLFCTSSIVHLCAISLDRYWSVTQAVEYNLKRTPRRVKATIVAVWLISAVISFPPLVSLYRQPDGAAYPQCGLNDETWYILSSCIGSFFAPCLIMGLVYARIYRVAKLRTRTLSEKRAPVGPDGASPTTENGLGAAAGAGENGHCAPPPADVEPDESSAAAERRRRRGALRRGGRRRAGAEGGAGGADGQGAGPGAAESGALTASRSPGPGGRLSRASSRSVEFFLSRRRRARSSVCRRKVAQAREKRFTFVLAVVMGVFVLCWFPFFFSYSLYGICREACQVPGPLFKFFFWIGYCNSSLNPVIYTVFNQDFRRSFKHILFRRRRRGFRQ", "assay": "receptor profile (Table S4)", "format": "binding"}, "[3]": {"assay": "in vivo micronucleus (MNT) study in rat"}, "[4]": {"assay": "metabolite profile in human hepatocytes", "format": "in vitro ADME", "conditions": "10 μM of 1 for 4 h, UV 250 nm, normalized to largest peak"}, "[5]": {"assay": "in vivo", "conditions": "Balb/c, mouse, plasma", "description": "In Vivo PK Studies in Mice.\n(§1) The solution was filtered using a 0.45 m syringe filter before dosing. Two male Balb/c mice were administered 1 intravenously via the lateral tail\n(§2) vein at 5 mg/kg with a dose volume of 2.0 mL/kg. 1 was also formulated in a suspension of 0.5%\n(§3) methylcellulose with 0.5% Tween 80 (0.5% MC/0.5% Tw80) in water at 2.5 mg/mL. A group of mice\n(§4) (n=3) were administered 1 orally via gavage at 20 mg/kg with a dose volume of 8.0 mL/kg.\n(§5) The mouse blood samples were centrifuged to separate plasma and the plasma samples were frozen at -\nIn Vivo PK Studies in Rats.\nTwo male Wistar rats were administered\n(§6) 1 intravenously via the lateral tail vein at 3 mg/kg with a dose volume of 1.0 mL/kg. 1 was also formulated\n(§7) in a suspension of 0.5% methylcellulose with 0.5% Tween 80 (0.5% MC/0.5% Tw80) in water at 2.0\n(§8) mg/mL. The second group of rats (n=3) were administered 1 orally via gavage at 10 mg/kg in suspension\n(§9) with a dose volume of 5.0 mL/kg. Six blood samples of 100 μL each were collected serially from each\n(§10) animal via the saphenous vein up to 24 hours after dosing. The rat blood samples were centrifuged to\n(§11) separate plasma and the plasma samples were frozen at -20°C until analysis.\nIn Vivo PK Studies in Dogs.\n(§12) The solution was filtered using a 0.45 m syringe filter before dosing. Three male Beagle dogs were administered 1 intravenously via saphenous\n(§13) vein at 0.3 mg/kg with a dose volume of 0.1 mL/kg. 1 was also formulated in a suspension of 0.5%\n(§14) methylcellulose with 0.5% Tween 80 (0.5%MC/0.5% Tween 80) in water at 1.0 mg/mL. The second\n(§15) group of male dogs (n=2) were administered 1- orally via gavage at 1.0 mg/kg with a dose volume of 1.0\n(§16) mL/kg. Seven blood samples of 250 µL each were collected serially from each animal via the jugular vein\n(§17) The dog blood samples were centrifuged to separate plasma and the plasma\n(§18) samples were frozen at -20 °C until analysis."}, "[6]": {"molecular_target": "hr ERa antag (Homo sapiens, UniProt P03372)", "sequence (P03372 whole entry)": "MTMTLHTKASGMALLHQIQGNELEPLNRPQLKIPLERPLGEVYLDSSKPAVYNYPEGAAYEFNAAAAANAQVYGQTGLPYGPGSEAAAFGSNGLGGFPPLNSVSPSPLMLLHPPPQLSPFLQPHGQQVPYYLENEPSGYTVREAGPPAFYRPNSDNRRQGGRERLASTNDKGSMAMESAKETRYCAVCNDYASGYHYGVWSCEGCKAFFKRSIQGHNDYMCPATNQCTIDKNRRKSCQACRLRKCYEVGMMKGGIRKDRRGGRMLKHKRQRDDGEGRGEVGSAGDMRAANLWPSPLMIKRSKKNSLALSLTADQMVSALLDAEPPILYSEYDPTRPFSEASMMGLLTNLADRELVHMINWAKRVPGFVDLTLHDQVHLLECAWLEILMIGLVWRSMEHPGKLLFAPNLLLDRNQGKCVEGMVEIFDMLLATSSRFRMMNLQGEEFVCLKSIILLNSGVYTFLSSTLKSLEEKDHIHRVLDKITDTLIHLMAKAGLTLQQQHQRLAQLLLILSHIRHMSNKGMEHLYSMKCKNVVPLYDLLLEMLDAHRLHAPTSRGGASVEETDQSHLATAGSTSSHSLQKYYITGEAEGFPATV", "assay": "receptor profile (Table S4)", "format": "biochemical"}, "[7]": {"molecular_target": "hr Ad2A (Homo sapiens, UniProt P29274)", "sequence (P29274 whole entry)": "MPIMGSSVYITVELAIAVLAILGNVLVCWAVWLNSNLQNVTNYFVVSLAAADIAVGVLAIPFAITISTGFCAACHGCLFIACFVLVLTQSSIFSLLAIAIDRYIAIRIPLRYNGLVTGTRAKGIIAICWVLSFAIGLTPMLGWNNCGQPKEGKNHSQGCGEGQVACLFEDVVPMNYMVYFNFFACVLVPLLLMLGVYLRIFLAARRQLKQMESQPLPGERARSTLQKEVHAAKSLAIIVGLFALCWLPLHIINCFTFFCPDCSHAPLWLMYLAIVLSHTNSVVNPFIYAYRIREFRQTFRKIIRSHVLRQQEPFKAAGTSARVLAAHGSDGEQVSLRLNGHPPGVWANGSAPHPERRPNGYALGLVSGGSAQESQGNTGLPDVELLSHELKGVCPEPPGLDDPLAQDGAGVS", "assay": "receptor profile (Table S4)", "format": "binding"}, "[8]": {"molecular_target": "T2, hr ETa (Homo sapiens, UniProt P25101)", "T2 sequence (P25101 21-427)": "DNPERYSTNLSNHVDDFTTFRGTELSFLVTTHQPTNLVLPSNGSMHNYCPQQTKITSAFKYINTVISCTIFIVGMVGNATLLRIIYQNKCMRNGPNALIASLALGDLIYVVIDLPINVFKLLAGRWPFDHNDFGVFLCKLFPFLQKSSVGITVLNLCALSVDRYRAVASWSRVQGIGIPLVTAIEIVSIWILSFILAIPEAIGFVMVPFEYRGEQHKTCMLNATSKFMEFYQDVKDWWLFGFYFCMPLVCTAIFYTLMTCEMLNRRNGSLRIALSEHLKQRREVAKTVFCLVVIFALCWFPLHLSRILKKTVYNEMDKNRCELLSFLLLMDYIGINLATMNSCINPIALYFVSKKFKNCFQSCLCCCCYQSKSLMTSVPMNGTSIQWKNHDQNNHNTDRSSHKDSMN", "assay": "receptor profile (Table S4)", "format": "binding"}, "[9]": {"assay": "in vivo", "conditions": "male, dog, plasma", "description": "In Vivo PK Studies in Mice.\nas §1, §2, §3, §4, §5\nIn Vivo PK Studies in Rats.\nTwo male Wistar rats were administered\nas §6, §7, §8, §9, §10, §11\nIn Vivo PK Studies in Dogs.\nas §12, §13, §14, §15, §16, §17, §18"}, "[10]": {"molecular_target": "T3, hr COX-2 (Homo sapiens, UniProt P35354)", "T3 sequence (P35354 18-604)": "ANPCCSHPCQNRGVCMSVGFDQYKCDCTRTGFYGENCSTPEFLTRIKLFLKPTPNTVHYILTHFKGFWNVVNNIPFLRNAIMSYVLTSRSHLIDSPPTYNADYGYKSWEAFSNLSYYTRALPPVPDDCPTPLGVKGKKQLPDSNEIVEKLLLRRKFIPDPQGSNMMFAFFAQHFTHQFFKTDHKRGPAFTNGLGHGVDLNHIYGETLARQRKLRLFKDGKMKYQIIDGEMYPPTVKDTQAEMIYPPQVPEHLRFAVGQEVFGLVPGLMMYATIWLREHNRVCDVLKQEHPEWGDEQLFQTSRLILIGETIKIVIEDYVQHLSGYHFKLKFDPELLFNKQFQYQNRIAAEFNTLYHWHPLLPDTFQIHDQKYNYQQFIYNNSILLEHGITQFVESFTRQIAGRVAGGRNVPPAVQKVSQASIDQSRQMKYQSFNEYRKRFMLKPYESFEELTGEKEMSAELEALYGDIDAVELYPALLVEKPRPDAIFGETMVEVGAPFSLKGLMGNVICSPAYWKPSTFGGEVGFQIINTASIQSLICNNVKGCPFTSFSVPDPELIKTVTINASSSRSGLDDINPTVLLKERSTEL", "assay": "receptor profile (Table S4)", "format": "biochemical"}, "[11]": {"conditions": "microsomal extraction ratio, 1 h incubation in microsomes"}, "[12]": {"molecular_target": "hr M3 (Homo sapiens, UniProt P20309)", "sequence (P20309 whole entry)": "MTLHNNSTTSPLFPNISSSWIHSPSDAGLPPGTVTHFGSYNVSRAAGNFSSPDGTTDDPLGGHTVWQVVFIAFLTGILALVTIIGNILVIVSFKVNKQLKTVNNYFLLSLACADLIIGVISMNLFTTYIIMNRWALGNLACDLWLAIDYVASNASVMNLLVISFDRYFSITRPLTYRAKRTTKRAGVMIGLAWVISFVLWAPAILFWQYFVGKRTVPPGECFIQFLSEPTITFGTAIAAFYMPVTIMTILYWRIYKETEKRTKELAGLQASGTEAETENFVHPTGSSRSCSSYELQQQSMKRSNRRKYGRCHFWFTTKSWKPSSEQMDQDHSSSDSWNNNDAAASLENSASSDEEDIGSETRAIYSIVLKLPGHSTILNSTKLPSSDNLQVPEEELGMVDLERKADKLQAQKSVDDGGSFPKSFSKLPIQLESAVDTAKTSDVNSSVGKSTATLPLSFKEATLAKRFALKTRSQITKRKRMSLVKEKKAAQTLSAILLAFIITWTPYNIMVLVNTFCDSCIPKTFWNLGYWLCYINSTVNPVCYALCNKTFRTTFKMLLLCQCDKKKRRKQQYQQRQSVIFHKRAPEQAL", "assay": "receptor profile (Table S4)", "format": "binding"}, "[13]": {"molecular_target": "hERG (Homo sapiens, UniProt Q12809)", "sequence (Q12809 whole entry)": "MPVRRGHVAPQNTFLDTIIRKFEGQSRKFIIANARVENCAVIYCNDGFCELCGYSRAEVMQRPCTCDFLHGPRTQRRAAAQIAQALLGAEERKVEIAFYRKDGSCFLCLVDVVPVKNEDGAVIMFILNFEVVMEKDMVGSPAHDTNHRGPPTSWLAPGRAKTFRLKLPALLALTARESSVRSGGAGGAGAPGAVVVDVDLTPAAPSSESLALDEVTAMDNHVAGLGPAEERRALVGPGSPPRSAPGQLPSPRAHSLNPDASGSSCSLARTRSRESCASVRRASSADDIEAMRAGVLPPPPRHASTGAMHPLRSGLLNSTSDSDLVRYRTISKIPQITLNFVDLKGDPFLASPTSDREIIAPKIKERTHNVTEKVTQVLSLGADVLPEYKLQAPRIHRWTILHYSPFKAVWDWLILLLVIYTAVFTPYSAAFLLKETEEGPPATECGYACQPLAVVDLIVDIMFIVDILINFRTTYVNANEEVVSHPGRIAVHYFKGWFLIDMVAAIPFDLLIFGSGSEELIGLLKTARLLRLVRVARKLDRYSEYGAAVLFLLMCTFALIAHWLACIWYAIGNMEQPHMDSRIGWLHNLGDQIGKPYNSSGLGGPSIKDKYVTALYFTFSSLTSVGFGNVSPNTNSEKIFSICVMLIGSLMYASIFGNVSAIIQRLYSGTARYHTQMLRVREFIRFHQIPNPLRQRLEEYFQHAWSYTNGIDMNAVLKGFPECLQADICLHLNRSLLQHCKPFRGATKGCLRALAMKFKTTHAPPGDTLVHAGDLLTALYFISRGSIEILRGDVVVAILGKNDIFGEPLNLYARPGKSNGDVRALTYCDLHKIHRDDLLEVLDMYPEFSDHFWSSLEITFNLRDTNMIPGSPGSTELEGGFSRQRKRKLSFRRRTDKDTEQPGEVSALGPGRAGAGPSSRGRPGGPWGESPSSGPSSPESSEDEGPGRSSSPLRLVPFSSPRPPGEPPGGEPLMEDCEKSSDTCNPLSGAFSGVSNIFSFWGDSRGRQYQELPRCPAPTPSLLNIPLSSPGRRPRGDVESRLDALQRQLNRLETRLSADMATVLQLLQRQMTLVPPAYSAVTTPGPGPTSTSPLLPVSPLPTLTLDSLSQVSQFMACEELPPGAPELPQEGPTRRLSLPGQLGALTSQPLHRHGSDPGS", "assay": "receptor profile (Table S4)"}, "[14]": {"molecular_target": "hr NET (Homo sapiens, UniProt P23975)", "sequence (P23975 whole entry)": "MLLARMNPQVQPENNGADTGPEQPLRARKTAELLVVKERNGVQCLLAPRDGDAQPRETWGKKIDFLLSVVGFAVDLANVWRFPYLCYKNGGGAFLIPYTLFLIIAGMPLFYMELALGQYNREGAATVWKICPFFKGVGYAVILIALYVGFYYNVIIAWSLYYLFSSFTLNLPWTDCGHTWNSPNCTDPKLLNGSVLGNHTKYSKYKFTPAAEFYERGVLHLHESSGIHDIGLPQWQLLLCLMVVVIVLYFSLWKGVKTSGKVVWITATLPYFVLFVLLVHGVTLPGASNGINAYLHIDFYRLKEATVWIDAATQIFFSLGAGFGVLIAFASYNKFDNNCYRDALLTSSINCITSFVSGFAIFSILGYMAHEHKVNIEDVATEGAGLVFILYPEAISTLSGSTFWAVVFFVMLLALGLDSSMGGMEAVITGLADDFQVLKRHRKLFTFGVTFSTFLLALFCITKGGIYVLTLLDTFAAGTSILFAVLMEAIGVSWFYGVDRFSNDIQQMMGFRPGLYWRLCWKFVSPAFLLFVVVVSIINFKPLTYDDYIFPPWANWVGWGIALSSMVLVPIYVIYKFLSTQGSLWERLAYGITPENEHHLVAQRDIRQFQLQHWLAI", "assay": "receptor profile (Table S4)", "format": "binding"}}}
{"smiles": "Cc1nc(C)c(C(=O)Nc2ccc(F)c(-c3nc4ncc(-c5ncccc5C)cn4n3)c2)o1", "note": "[compound 1, N-(4-Fluoro-3-(6-(3-methylpyridin-2-yl)-[1,2,4]triazolo[1,5-a]pyrimidin-2-yl)phenyl)-2,4-dimethyloxazole-5-carboxamide]", "values": [{"measurement": "EC50/IC50", "setting": "[1]; hr CB1 ag", "value": "> 30", "unit": "µM"}, {"measurement": "inhibition at 10 µM", "setting": "[1]; read-out: % inh/act @ 10 µM", "value": 0, "unit": "%"}, {"measurement": "inhibition at 30 µM", "setting": "[1]; read-out: % inh/act @ 30 µM", "value": 3, "unit": "%"}, {"measurement": "EC50/IC50", "setting": "[2]; hr Alpha2C", "value": "> 30", "unit": "µM"}, {"measurement": "inhibition at 10 µM", "setting": "[2]; read-out: % inh/act @ 10 µM", "value": 13, "unit": "%"}, {"measurement": "inhibition at 30 µM", "setting": "[2]; read-out: % inh/act @ 30 µM", "value": 32, "unit": "%"}, {"measurement": "micronucleus (MNT), risk of clastogenicity", "setting": "[3]", "value": "did not indicate a risk"}, {"measurement": "abundance human", "setting": "[4]", "value": "+++ (+++ > 75%)"}, {"measurement": "bioavailability", "setting": "[5]; po, 20 mg/kg", "value": 46, "unit": "%"}, {"measurement": "MRT", "setting": "[5]; male, iv, 5 mg/kg", "value": 4.6, "unit": "h"}, {"measurement": "Vd", "setting": "[5]; male, iv, 5 mg/kg", "value": 0.63, "unit": "L/kg"}, {"measurement": "clearance", "setting": "[5]; male, iv, 5 mg/kg", "value": 2.3, "unit": "mL/min/kg"}, {"measurement": "half-life", "setting": "[5]; male, iv, 5 mg/kg", "value": 3.3, "unit": "h"}, {"measurement": "EC50/IC50", "setting": "[6]; hr ERa antag", "value": "> 30", "unit": "µM"}, {"measurement": "inhibition at 10 µM", "setting": "[6]; read-out: % inh/act @ 10 µM", "value": -8, "unit": "%"}, {"measurement": "inhibition at 30 µM", "setting": "[6]; read-out: % inh/act @ 30 µM", "value": -4, "unit": "%"}, {"measurement": "EC50/IC50", "setting": "[7]; hr Ad2A", "value": "> 30", "unit": "µM"}, {"measurement": "inhibition at 10 µM", "setting": "[7]; read-out: % inh/act @ 10 µM", "value": 26, "unit": "%"}, {"measurement": "inhibition at 30 µM", "setting": "[7]; read-out: % inh/act @ 30 µM", "value": 52, "unit": "%"}, {"measurement": "EC50/IC50", "setting": "[8]; hr ETa", "value": "> 30", "unit": "µM"}, {"measurement": "inhibition at 10 µM", "setting": "[8]; read-out: % inh/act @ 10 µM", "value": 2, "unit": "%"}, {"measurement": "inhibition at 30 µM", "setting": "[8]; read-out: % inh/act @ 30 µM", "value": 13, "unit": "%"}, {"measurement": "bioavailability", "setting": "[9]; Beagle, po, 1 mg/kg", "value": 44, "unit": "%"}, {"measurement": "MRT", "setting": "[9]; beagle, iv, 0.3 mg/kg", "value": 3.3, "unit": "h"}, {"measurement": "Vd", "setting": "[9]; beagle, iv, 0.3 mg/kg", "value": 2.1, "unit": "L/kg"}, {"measurement": "clearance", "setting": "[9]; beagle, iv, 0.3 mg/kg", "value": 11.6, "unit": "mL/min/kg"}, {"measurement": "half-life", "setting": "[9]; beagle, iv, 0.3 mg/kg", "value": 3.8, "unit": "h"}, {"measurement": "EC50/IC50", "setting": "[10]; hr COX-2", "value": "> 30", "unit": "µM"}, {"measurement": "inhibition at 10 µM", "setting": "[10]; read-out: % inh/act @ 10 µM", "value": 9, "unit": "%"}, {"measurement": "inhibition at 30 µM", "setting": "[10]; read-out: % inh/act @ 30 µM", "value": 13, "unit": "%"}, {"measurement": "ER dog", "setting": "[11]", "value": "< 0.24"}, {"measurement": "EC50/IC50", "setting": "[12]; hr M3", "value": "> 30", "unit": "µM"}, {"measurement": "inhibition at 10 µM", "setting": "[12]; read-out: % inh/act @ 10 µM", "value": 17, "unit": "%"}, {"measurement": "inhibition at 30 µM", "setting": "[12]; read-out: % inh/act @ 30 µM", "value": 25, "unit": "%"}, {"measurement": "EC50/IC50", "setting": "[13]; hERG", "value": "> 30", "unit": "µM"}, {"measurement": "inhibition at 10 µM", "setting": "[13]; human", "value": -36, "unit": "%"}, {"measurement": "inhibition at 30 µM", "setting": "[13]; human", "value": -25, "unit": "%"}, {"measurement": "EC50/IC50", "setting": "[14]; hr NET", "value": "> 30", "unit": "µM"}, {"measurement": "inhibition at 10 µM", "setting": "[14]; read-out: % inh/act @ 10 µM", "value": 19, "unit": "%"}, {"measurement": "inhibition at 30 µM", "setting": "[14]; read-out: % inh/act @ 30 µM", "value": 24, "unit": "%"}]}
